Measurements as given in patent US12419891B2, “Compositions for the treatment of pathogenic- and/or chemical-induced lung injury and for the treatment of cancer and methods of using same” (Duke University, priority 2019, dated 2025).

How the values were obtained:
[1] = tested on: Basal cells (bronchospheres); assay: bronchosphere 3D Matrigel culture assay; format: cell-based, human; settings: for SOX2 (basal cell marker) expression, immunoblot / acetylated α-tubulin (ciliated cell marker) expression, immunoblot: bronchosphere lysates; for bronchosphere growth: basal cell proliferation and differentiation: treated three days starting two days after plating; for Ki67 (proliferation marker) protein expression: vs untreated cells
Description: The effect of Abl kinase inhibition on the development of bronchospheres in a 3D Matrigel culture assay was also evaluated. Basal cells were cultured in Matrigel at passage 1 and treated with vehicle control, the Abl kinase inhibitor, GNF5, or the Abl kinase activator, DPH, for three days starting two days after plating the cells.

Abl kinases = settings: Zhang J. et al. (2010) Nature 463:501-506; cited from earlier work
[2] = tested on: mice exposed to S. aureus; assay: mouse model of pneumonia induced by nasal insufflation of S. aureus; format: in vivo
Description: Bacteria. S. aureus (Ssp. aureus, No. 25923; American Type Culture Collection) was grown as previously described (Suliman H B et al. (2017) Mitochondrial quality control in alveolar epithelial cells damaged by S. aureus pneumonia in mice. American journal of physiology. Lung cellular and molecular physiology 313(4):L699-L709). Dilutions of 5×10^8 CFU were used for mouse experiments, and dilutions of 1×10^8 CFU were used for cell culture experiments. S. pneumoniae (serotype 19, No. 49619; American Type Culture Collection) was grown as previously described (Gomez J C, et al. (2016) Journal of immunology 197(7):2864-2879). Dilutions of 6×10^5 CFU were used for mouse experiments.
CC10 (Scgb1a1)-CreERT; Rosa26R-CAG-farnesylated GFP (Rosa26-fGFP) and SPC (Sftpc)-CreERT2; Rosa26-tdTomato mice were kindly provided by Dr. Mark Onaitis and generated by Dr. Brigid Hogan at Duke University and have been previously described (Rawlins E L, et al. (2009) Cell stem cell 4(6):525-534, Xu X, et al. (2012) Proc Natl Acad Sci USA 109(13):4910-4915). These mice were crossed with Abl1^flox/flox mice (Moresco E M, et al. (2005) J Neurosci 25(26):6105-6118) into a C57BL/6 genetic background. Sox2^tmHoch/J mice (referred to as SOX2-eGFP mice in the text) were purchased from the Jackson Laboratory. Gt(Rosa) 26Sor^tm9(EGFP/Rpl10z)Amc/J (referred to as L10-eGFP in the text) mice were purchased from the Jackson Laboratory and were crossed to CC10-CreERT; Abl1^flox/flox mice into a C57BL/6 genetic background for the TRAP experiments. To induce expression of Cre-recombinase for both TRAP experiments and lineage tracing experiments, 8to 20-week-old male and female mice were injected intraperitoneally four times every other day with 0.25 mg/g body weight Tamoxifen (Sigma-T5648) in corn oil (Spectrum-CO136). Exposure to S. aureus was initiated 15 days after the last dose of Tamoxifen. Alternatively, mice were inoculated with purified Adenovirus5-CC10-Cre virus obtained from the University of Iowa Viral Vector Core Facility and generated by Dr. Anton Berns (Netherlands Cancer Institute). 10 μL of stock virus solution was mixed in 30 μL of Minimum Essential Medium and delivered intranasally twice, three days apart, three weeks prior to induction of S. aureus pneumonia. Mice were anesthetized using 0.3 mg xylazine and […] ketamine intraperitoneally prior to intranasal inoculation with a 50 μL dilution of 5×10^8 S. aureus. The mice were monitored daily for weight loss and signs of respiratory distress and euthanized in an isofluorane chamber at days 0, 1, 2, and 3 after inoculation. All experiments were performed under the Duke University IACUC approved protocols: A098-16-04 and A130-16-06. Male and female mice at different ages (8 to 20 weeks old) were evaluated for differential response to drug (Abl kinase inhibitors and tamoxifen) and/or injury, and no significant effects of age and gender were observed.
Inhibitors. GNF5 (N-(2-Hydroxyethyl)-3-(6-(4-(trifluoromethoxy)phenylamino)pyrimidin-4-yl)benzamide) was synthesized at the Duke University's Small Molecule Synthesis Facility, and validated by LC-MS and 1H-NMR/FT-IR spectra and with cell-based assays that confirm potencies and cell signaling inhibitory activities. For in vivo experiments, GNF5 was prepared in a suspension with 0.5% methylcellulose and 0.5% Tween-80 at a concentration of 10 mg/mL, and mice were treated with either 20 mg/kg, 40 mg/kg, or 100 mg/kg b.i.d. via oral gavage.
Bronchoalveolar lavage preparation and assays. Bronchoalveolar lavage (BAL) fluid was collected immediately after euthanasia three days after exposure to S. aureus as previously described (Suliman H B, et al. (2017) Lung cellular and molecular physiology 313(4):L699-L709). Bilateral BAL was performed using two 1 mL aliquots of sterile PBS with approximately 75-80% retrieval per mouse. […]

[3] = tested on: Kras G12D/+; p53 -/- driven lung tumors; format: in vivo, mouse; settings: GNF5 b.i.d.; docetaxel at sub-therapeutic dose; vehicle four-fold increase
[4] = tested on: mouse airway epithelium after SO2 injury; assay: sulfur dioxide (SO2) airway injury mouse model; format: in vivo
Description: To evaluate whether the Abl kinases promote basal cell differentiation in vivo, the sulfur dioxide (SO2) injury model was employed (FIG. 22). SO2 inhalation elicits cell death and sloughing of luminal (ciliated and secretory) cells, leaving a layer of intact basal cells in the tracheobronchial region (Zuo W. et al. (2015) Nature. 517(7536):616-20). Previous studies have shown that after SO2-induced destruction and sloughing of luminal cells, the surviving basal cells (Krt5+) proliferate to generate progenitor cells (Krt8+) that accumulate and subsequently undergo differentiation into ciliated (acetylated alpha-tubulin+) and secretory (Scgb1a1+) cells (5 days to 2 weeks after injury) (Hogan B L, et al. (2014) Cell stem cell, 15(2):123-38). This well-defined model of airway injury and regeneration has been employed to identify signaling pathways that promote proliferation and differentiation of the lung epithelium after injury (Hogan B L, et al. (2014) Cell stem cell, 15(2):123-38, Tadokoro T, et al., (2014) Proceedings of the National Academy of Sciences of the U.S.A. 111(35):E3641-9).
To distinguish between protective and regenerative effects of Abl kinase inhibition, the expression of various proliferation and differentiation markers in the mouse trachea after injury was evaluated.
Next, whether Abl kinase inhibition promotes basal cell differentiation to Krt8+ cells by affecting Yap1 signaling was investigated. Three days after SO2 injury, mouse tracheas were harvested and evaluated for Yap1 protein expression by immunofluorescence.

[5] = tested on: primary human bronchial epithelial cells (HBECs); assay: basal cell differentiation of primary HBECs in air-liquid interface (ALI) cultures; format: cell-based; settings: vs vehicle
Description: Cell Culture. Primary human bronchial epithelial cells were isolated as previously described (Fulcher M L & Randell S H (2013) Methods Mol Biol 945:109-121) and passage 1 cells were derived from human lungs unsuitable for transplantation from non-smoker organ donors without pre-existing lung disease under protocol #03-1396 approved by the University of North Carolina at Chapel Hill Biomedical Institutional Review Board. Informed consent was obtained from authorized representatives of all organ donors. 30,000 cells were plated into each well of 6.5 mm polyester inserts containing 0.4 μm pores (Sigma-CLS3470) coated with Type IV human placenta collagen (Sigma-C7521). 100 μl of ALI medium was added to the insert and 600 μl of ALI medium was added to the well at the time of plating. At Day 3, ALI medium from the insert was removed while that in the well was changed daily for 28 days. At Day 28, the inserts containing the cells were removed from their wells, washed with PBS, and incubated at 37° C. for 30 minutes with 1×10^8 CFU S. aureus. Cells were then washed three times with PBS and returned to wells containing 600 μl of ALI medium to regrow. Cells were harvested at multiple time points up to five days after injury for protein or RNA extraction. All cultures were maintained at 37° C. in humidified air containing 5% CO2.
First, the role of Abl kinases in basal cell differentiation in primary human bronchial epithelial cells (HBECs) in air-liquid interface (ALI) cultures was examined. Basal cells were isolated from human donor lungs and plated on polyester transwell inserts at passage 1. Once the cells were 100% confluent (3-4 days after plating), media from the top chamber of the transwell insert was removed to promote differentiation of the basal cells into a pseudostratified ciliated epithelium (FIG. 19A). […] Among these are acetylated α-tubulin and SNTN (ciliated cell marker) and SCGB3A2 (secretory cell marker) (FIG. 19C).
To identify whether Abl kinase inhibition promotes early (Krt5+ cells→Krt8+ cells) or late (Krt8+→acetylated α-tubulin or Scgb1a1+ cells) differentiation, a time course experiment in primary HBEC ALI cultures was conducted. Primary HBECs were plated on polyester transwell inserts and treated with vehicle control or GNF5 24 hours after plating.

Primary HBECs [6] = assay: primary HBECs pre-treated with Abl kinase inhibitor before exposure to S. aureus, Western blot; format: cell-based, human; settings: pre-treated 24 hours prior to exposure to S. aureus
Description: Cell Culture. Primary human bronchial epithelial cells were isolated as previously described (Fulcher M L & Randell S H (2013) Methods Mol Biol 945:109-121) and passage 1 cells were derived from human lungs unsuitable for transplantation from non-smoker organ donors without pre-existing lung disease under protocol #03-1396 approved by the University of North Carolina at Chapel Hill Biomedical Institutional Review Board. Informed consent was obtained from authorized representatives of all organ donors. 30,000 cells were plated into each well of 6.5 mm polyester inserts containing 0.4 μm pores (Sigma-CLS3470) coated with Type IV human placenta collagen (Sigma-C7521). 100 μl of ALI medium was added to the insert and 600 μl of ALI medium was added to the well at the time of plating. At Day 3, ALI medium from the insert was removed while that in the well was changed daily for 28 days. At Day 28, the inserts containing the cells were removed from their wells, washed with PBS, and incubated at 37° C. for 30 minutes with 1×10^8 CFU S. aureus. Cells were then washed three times with PBS and returned to wells containing 600 μl of ALI medium to regrow. […]
Immunoblotting. […] Protein was quantified, and equal amounts of protein was separated by SDS-polyacrylamide gel electrophoresis (BioRad-1610183) and transferred onto 0.2 μm pore nitrocellulose membranes. […]

Primary HBECs [7] = assay: transepithelial electrical resistance assay in ALI cultures of primary HBECs; format: cell-based, human; settings: vs vehicle control-treated cells
Description: Thus, inhibition of the Abl kinases in 3D ALI cultures of primary HBECs promotes basal cell differentiation and enhances barrier function.

[8] = day 3 post-infection, treatment started 24 hours after injury (Post)

SMILES: O=C1NC(=O)C(c2cn(-c3ccccc3)nc2-c2ccc(F)cc2)N1 (stereo not drawn) [DPH]
- SOX2 (basal cell marker) expression, immunoblot [1]: increased expression of the basal cell marker, SOX2
- acetylated α-tubulin (ciliated cell marker) expression, immunoblot [1]: decreased expression of acetylated α-tubulin
- bronchosphere growth: basal cell proliferation and differentiation [1]: reduced bronchosphere growth and differentiation

SMILES: O=C(NCCO)c1cccc(-c2cc(Nc3ccc(OC(F)(F)F)cc3)ncn2)c1 [GNF5, N-(2-Hydroxyethyl)-3-(6-(4-(trifluoromethoxy)phenylamino)pyrimidin-4-yl)benzamide]
- selectivity versus other protein kinases (Abl kinases): does not inhibit other protein kinases
- activity and appearance of mice ([2]; 24 h after injury, vs vehicle control-treated mice): active and exhibited a healthy appearance
- lung injury in lung tissue sections (H&E) ([2]; 72 hours post-infection, treatment started 1 h after insufflation): significant decrease in lung injury
- proportion of GFP+ (Scgb1a1 driver) SPC+ cells ([2]; CC10-CreER, Rosa26-fGFP mice, three days after injury, vs vehicle): significant increase
- proportion of SOX2+ SPC+ cells expanding from bronchioles into lung parenchyma ([2]; SOX2-eGFP mice, 100 mg/kg b.i.d. oral gavage from 24 h before insufflation, three days after injury, vs vehicle): dramatic increase
- alveolar damage (loss of alveolar area/volume compared to uninfected mice) ([2]; SPC-CreERT2, Rosa26-tdTomato mice, 3 days after injury, vs Abl1 wt or fl/fl mice): reduced damage
- tdTomato+, RAGE+ (Type I) cells derived from tdTomato+, SPC+, RAGE- (Type II) cells ([2]; SPC-CreERT2, Rosa26-tdTomato mice, three days after injury): detected at sites of damage only in mice treated with GNF5
- proportion of tdTomato+ (Sftpc driver) RAGE+ Type I AECs ([2]; SPC-CreERT2, Rosa26-tdTomato mice, vs untreated wild-type and Abl1 knockout): increase in the proportion
- SPC expression in SCGB1A1+ cells within the bronchioles ([2]; after injury): enhanced SPC expression
- BAL protein concentration [2, 8]: significant reduction in protein concentration
- BAL protein concentration ([2]; day 3 post-infection, treatment started 24 hours prior to injury (Pre)): significant reduction in protein concentration
- recovery of alveolar epithelium (RAGE staining) ([2]; day 3 post-infection, vs control mice): recovered more rapidly
- recovery of mice after injury ([2]; two doses, 1 hour and 16 hours after injury, evaluated after 24 hours, vs vehicle): sufficient to promote recovery after 24 hours
- SOX2 (basal cell marker) expression, immunoblot [1]: decrease in the basal cell marker, SOX2
- acetylated α-tubulin (ciliated cell marker) expression, immunoblot [1]: increase in the ciliated cell marker, acetylated α-tubulin
- bronchosphere growth: basal cell proliferation and differentiation [1]: promoted basal cell proliferation and differentiation
- Ki67 (proliferation marker) protein expression [1]: increase in protein expression of the proliferation marker, Ki67
- change in tumor size over a two-week period (μCT) [3]: two-fold increase in tumor size
- Ki67 expression in tracheal basal cells ([4]; 24 h following SO2 induced injury, vs untreated): significant increase in the expression of Ki67
- Scgb1a1+ Club cells and acetylated α-tubulin+ ciliated cells (staining) ([4]; 24 hours after SO2 exposure): mostly intact layer of secretory cells and some ciliated cells
- quantification of acetylated α-tubulin+ ciliated cells in whole tracheas ([4]; 24 hours after sulfur dioxide, pre-treatment 24 hours before): protection of ciliated cells
- pseudostratified epithelium in whole trachea sections (immunofluorescence) ([4]; after SO2 injury, vs untreated mice): preservation of the pseudostratified epithelium
- Yap1 localization in basal cells ([4]; three days after SO2 injury): predominantly cytoplasmic localization of Yap1
- tracheal epithelium morphology (H&E) ([4]; three days after SO2 injury): stratified, columnar, ciliated epithelium that had almost completely recovered from injury
- state of airway epithelium ([4]; within 24 hours after SO2 injury, pre-treated mice): mostly intact mouse airway epithelium
- SNTN expression (RT-PCR) ([5]; 7 days after plating): increase in expression of SNTN
- Krt8 expression (immunofluorescence and Western blot) ([5]; treated 24 hours after plating): significant increase in expression of Krt8

SMILES: Cc1cn(-c2cc(NC(=O)c3ccc(C)c(Nc4nccc(-c5cccnc5)n4)c3)cc(C(F)(F)F)c2)cn1 [nilotinib]
- expression of downstream transcriptional targets of YAP (Birc5, c-Myc, Cyclin D3) (Primary HBECs [6]): decreased transcript and protein expression
- lung injury ([2]; FIG. 9F, treatment 24 h after injury): significant reduction in lung injury
- BAL protein concentration [2, 8]: reduction in protein in the airspace
- SOX2 (basal cell marker) expression, immunoblot [1]: decrease in the basal cell marker, SOX2
- acetylated α-tubulin (ciliated cell marker) expression, immunoblot [1]: increase in the ciliated cell marker, acetylated α-tubulin
- Ki67 (proliferation marker) protein expression [1]: increase in protein expression of the proliferation marker, Ki67
- transepithelial electrical resistance across monolayer (Primary HBECs [7]): increased resistance
- acetylated α-tubulin expression (3D reconstruction) ([5]; 7 days after plating): increase in expression of acetylated α-tubulin
- acetylated α-tubulin protein expression (Western blot) ([5]; 7 days after plating): increase in protein expression of acetylated α-tubulin
